Assay results from US4201783A, “Antidepressant substituted hexahydro benzopyrano [3,2-c] pyridines” (Lipha Lyonnaise Industrielle Pharmaceutique, priority 1977, dated 1980).
Where a name gives a salt, the structure may show the parent alone.

Assays:
Swiss mice = conditions: oral
ptosis with reserpine = test: inhibition of reserpine ptosis in Swiss mice (B. Rubin et al.); format: in vivo; conditions: simultaneously with reserpine 5 mg/kg intraperitoneally, ptosis measured at 1, 1.5 and 2 hours; for ED50 (dose inhibiting reserpine ptosis by an average of 50%): oral; for ED50: Mus musculus, po, read-out: ED50 (dose inhibiting reserpine ptosis by an average of 50%)
Procedure: This mood-altering activity can be determined by standard, routine tests well known specialists. […] In Swiss mice, a compound was administered orally simultaneously with reserpine given interperitoneally at a dose of 5 mg/kg. Ptosis measured according to B. Rubin et al. (J. Pharmacol. Exp. […] (3-dimethylamino propylidene-5-dibenzo [a,d] 1,4-cycloheptadiene hydrochloride).

[1] = clinical test of the medication containing the active compound of Example 5 A; format: in vivo, human
From the text: The following are observations recorded during a clinical test of the medication containing the active compound of Example 5 A.

in vivo = conditions: mouse, po
[2] = Case No. 1, 5 mg daily for 30 days
[3] = Case No. 2, 20 mg daily for 30 days
[4] = Case No. 3, 10 mg daily for 20 days
[5] = Case No. 4, 25 mg daily for 45 days
[6] = Case No. 5, 5 mg daily for 30 days
[7] = Case No. 6, 25 mg daily for 30 days
[8] = LD50, administered orally, Swiss mice

CN1CCC23NC(=O)CC(c4ccccc4O2)C3C1 (single isomer, unassigned) [Example 1 A, 4a-amino-2-methyl-1,2,3,4,4a,10a-hexahydro [10 H] benzopyrano-[3,2-c]pyrid-10-yl acetic acid lactam]
LD50, administered orally (Swiss mice): 2,700 mg/kg
ED50 (dose inhibiting reserpine ptosis by an average of 50%) (ptosis with reserpine): 6 mg/kg

CN1CCC23NC(=O)CC(c4ccccc4O2)C3C1 (single isomer, unassigned) [Example 1 B, 4a-amino-2-methyl-1,2,3,4,4a,10a-hexahydro [10 H] benzopyrano-[3,2-c]pyrid-10-yl acetic acid lactam]
LD50, administered orally (Swiss mice): 600 mg/kg
ED50 (dose inhibiting reserpine ptosis by an average of 50%) (ptosis with reserpine): 24 mg/kg

CN1CCC23NC(=O)CC(c4cc(Cl)ccc4O2)C3C1 (single isomer, unassigned) [Example 5 A, 4a-amino-8-chloro-2-methyl-1,2,3,4,4a,10a-hexahydro[10 H]benzopyrano[3,2c]pyrid-10-ylacetic acid lactam]
ED50 (dose inhibiting reserpine ptosis by an average of 50%) (ptosis with reserpine): 0.04 mg/kg
Activity ([1]; Case No. 1, pre-senile depression, 5 mg daily for 30 days, with NOZINAN-SUREPTIL): Weight gain. Improvement of mood and sociability.
Tolerance, biological [1, 2]: N.A.D.
Tolerance, clinical [1, 2]: N.A.D.
Activity ([1]; Case No. 2, post-neuroleptic depression with schizophrenia, 20 mg daily for 30 days, with NOZINAN-ARTANE-GARDENAL): Weight gain. Improvement of mood and sleep. Reduced anxiety. Relief of hypochondriac complaints.
Tolerance, biological [1, 3]: N.A.D.
Tolerance, clinical [1, 3]: N.A.D.
Activity ([1]; Case No. 3, serious hypochondriac depressive syndrome, 10 mg daily for 20 days, with MEPRONIZINE): The patient was less preoccupied with their body. Decrease of compulsive washing. Improvement of social behavior.
Tolerance, biological [1, 4]: N.A.D.
Tolerance, clinical [1, 4]: N.A.D.
Activity ([1]; Case No. 4, melancholic depressive relapse, 25 mg daily for 45 days, with NOZINAN 25 mg): Improvement of mood. Less pessimistic attitude. Less frequent crying. Less pronounced feeling of guilt.
Tolerance, biological [1, 5]: N.A.D.
Tolerance, clinical [1, 5]: N.A.D.
Activity ([1]; Case No. 5, depressive syndrome in an alcoholic of the melancholic type, 5 mg daily for 30 days, with vitamins, NOZINAN (50 mg), ARTANE 5): Improvement of mood. Less frequent crying. Improved appetite.
Tolerance, biological [1, 6]: N.A.D.
Tolerance, clinical [1, 6]: slight dizziness and nausea
Activity ([1]; Case No. 6, hypochondriac delirium with anxiety, 25 mg daily for 30 days, with ARTANE 10 mg […]): Decrease of hypochondriac complaints. Patient less irritable and apprehensive.
Tolerance, biological [1, 7]: N.A.D.
Tolerance, clinical [1, 7]: slight vertigo

CN1CCC23NC(=O)CC(c4cc(Cl)ccc4O2)C3C1 (single isomer, unassigned) [Example 5 B, 4a-amino-8-chloro-2-methyl-1,2,3,4,4a,10a-hexahydro[10 H]benzopyrano[3,2c]pyrid-10-ylacetic acid lactam]
ED50 (dose inhibiting reserpine ptosis by an average of 50%) (ptosis with reserpine): 11 mg/kg

COc1ccc2c(c1)C1CC(=O)NC3(CCN(C)CC13)O2 (single isomer, unassigned) [Example 18, 4a-amino-8-methoxy-2-methyl-1,2,3,4,4a,10a-hexahydro[10 H]benzopyrano[3,2-c]pyrid-10-ylacetic acid lactam]
LD50 (in vivo; [8]): 1200 mg/kg
ED50 (ptosis with reserpine): 0.67 mg/kg

CN(C)CCC=C1c2ccccc2CCc2ccccc21 [Amitriphthyline, 3-dimethylamino propylidene-5-dibenzo [a,d] 1,4-cycloheptadiene hydrochloride, reference compound]
LD50 (in vivo): 150 mg/kg
ED50 (ptosis with reserpine): 10 mg/kg

CN1CCC23NC(=O)CC(c4cc(Br)ccc4O2)C3C1 (centres unmarked) [Example 6, 4a-amino-8-bromo-2-methyl-1,2,3,4,4a,10a-hexahydro[10 H]benzopyrano[3,2-c]pyrid-10-ylacetic acid lactam]
LD50 (in vivo; [8]): 720 mg/kg
ED50 (ptosis with reserpine): 0.1 mg/kg

Cc1ccc2c(c1)C1CC(=O)NC3(CCN(C)CC13)O2 (centres unmarked) [Example 7, 4a-amino-28-dimethyl-1,2,3,4,4a,10a-hexahydro[10 H]benzopyrano[3,2-c]pyrid-10-ylacetic acid lactam]
LD50 (in vivo; [8]): 1200 mg/kg
ED50 (ptosis with reserpine): 3.5 mg/kg

CN1CCC23NC(=O)CC(c4cc(F)ccc4O2)C3C1 (centres unmarked) [Example 8, 4a-amino-8-fluoro-2-methyl-1,2,3,4,4a,10a-hexahydro[10 H]benzopyrano[3,2-c]pyrid-10-ylacetic acid lactam]
LD50 (in vivo; [8]): 1080 mg/kg
ED50 (ptosis with reserpine): 1 mg/kg

CC(=O)N1CCC23NC(=O)CC(c4ccccc4O2)C3C1 (centres unmarked) [Example 9, 4a-amino-2-acetyl-1,2,3,4,4a,10a-hexahydro[10 H]benzopyrano[3,2-c]pyrid-10-ylacetic acid lactam]
LD50 (in vivo; [8]): > 3200 mg/kg
ED50 (ptosis with reserpine): 5 mg/kg

CN1CCC23NC(=O)CC(c4c(ccc5ccccc45)O2)C3C1 (centres unmarked) [Example 10, 7a-amino-10-methyl-7a,8,9,10,11,11a-hexahydro[12 H]benzo[f]benzopyrano[3,2-c]pyrid-12-ylacetic acid lactam]
LD50 (in vivo; [8]): 600 mg/kg
ED50 (ptosis with reserpine): 1.8 mg/kg

CN1CCC23NC(=O)CC(c4cc([N+](=O)[O-])ccc4O2)C3C1 (centres unmarked) [Example 15, 4a-amino-8-nitro-2-methyl-1,2,3,4,4a,10a-hexahydro[10 H]benzopyrano[3,2-c]pyrid-10-ylacetic acid lactam]
LD50 (in vivo; [8]): 2470 mg/kg
ED50 (ptosis with reserpine): 0.6 mg/kg

CCOC(=O)N1CCC23NC(=O)CC(c4cc(Cl)ccc4O2)C3C1 (centres unmarked) [Example 27, 4a-amino-8-chloro-2-ethoxycarbonyl-1,2,3,4,4a,10a-hexahydro[10 H]benzopyrano[3,2-c]pyrid-10-ylacetic acid lactam]
LD50 (in vivo): > 1600 mg/kg
ED50 (ptosis with reserpine): 0.37 mg/kg

COC(=O)N1CCC23NC(=O)CC(c4cc(Cl)ccc4O2)C3C1 (centres unmarked) [Example 28, 4a-amino-8-chloro-2-methoxycarbonyl-1,2,3,4,4a,10a-hexahydro[10 H]benzopyrano[3,2-c]pyrid-10-ylacetic acid lactam]
LD50 (in vivo): 1100 mg/kg
ED50 (ptosis with reserpine): 0.25 mg/kg

CN1CCC23Oc4ccc(Cl)cc4C(CC(=O)N2C)C3C1 (centres unmarked) [Example 36, 8-chloro-2-methyl-4a-methylamino-1,2,3,4,4a,10a-hexahydro[10 H]benzopyrano[3,2-c]pyrid-10-ylacetic acid lactam]
LD50 (in vivo; [8]): 600 mg/kg
ED50 (ptosis with reserpine): 0.7 mg/kg

CN(C)CCCN1c2ccccc2CCc2ccccc21 [Imipramine, N-(3-dimethylaminopropyl) iminodibenzyl hydrochloride, reference compound]
ED50 (ptosis with reserpine): 2.9 mg/kg
